Data taken from patent publication US8163729B2 (Wyeth, priority 2007, dated 2012).
Counter-ions that a name gives are not always drawn.

Assays:
[1] = hygroscopicity / Dynamic Vapor Sorption (DVS) of hydrochloride salt crystal forms; type: physicochemical; settings: for hygroscopicity (Crystal Form Table) / hygroscopicity: hydrochloride salt crystal forms; for water absorbed eventually: 90% RH
Experimental: Dynamic Vapor Sorption (DVS) was done at 26° C.

[2] = biological target: T1, alpha7 nicotinic acetylcholine receptor (Rattus norvegicus, UniProt Q05941); test: functional FLIPR assay, alpha7 nAChR stably expressed in GH4C1 cells; type: cell-based; settings: agonist, concentration range 0.001 to 30 microM
T1 construct: expressed in transfected cells
T1 sequence (Q05941 23-502): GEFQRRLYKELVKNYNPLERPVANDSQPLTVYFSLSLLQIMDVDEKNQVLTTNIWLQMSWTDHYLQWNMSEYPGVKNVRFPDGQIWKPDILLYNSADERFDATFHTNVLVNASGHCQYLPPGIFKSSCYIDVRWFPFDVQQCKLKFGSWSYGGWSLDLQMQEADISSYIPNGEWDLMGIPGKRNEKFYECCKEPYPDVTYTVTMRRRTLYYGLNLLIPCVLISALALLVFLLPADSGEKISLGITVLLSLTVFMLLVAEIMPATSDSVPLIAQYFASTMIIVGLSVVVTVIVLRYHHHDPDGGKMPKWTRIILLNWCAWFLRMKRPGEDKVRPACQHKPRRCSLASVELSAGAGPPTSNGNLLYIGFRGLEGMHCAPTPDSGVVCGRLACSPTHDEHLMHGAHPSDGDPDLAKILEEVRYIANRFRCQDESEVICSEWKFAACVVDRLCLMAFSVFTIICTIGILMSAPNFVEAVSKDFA
Source text: Rat GH4C1 cells were then transfected with the rat receptor, cloned and analyzed for functional alpha7 nicotinic receptor expression employing a FLIPR assay to measure changes in intracellular calcium concentrations.
The FLIPR system allows the measurements of real time Ca^2+-concentration changes in living cells using a Ca^2+ sensitive fluorescence dye (such as Fluo4). This instrument enables the screening for agonists and antagonists for alpha 7 nAChR channels stably expressed in GH4C1 cells.
GH4C1 cells stably transfected with rat-alpha7-nAChR (see above) were used. These cells are poorly adherent and therefore pretreatment of flasks and plates with poly-D-lysine was carried out. Cells are grown in 150 cm^2 T-flasks, filled with 30 ml of medium at 37° C. and 5% CO2.
EC50 and IC50 values were calculated using the IDBS XLfit4.1 software package employing a sigmoidal concentration-response (variable slope) equation: Y=Bottom+((Top−Bottom)/(1+((EC50/X)^HillSlope))
The compounds were tested using the functional FLIPR primary screening assay employing the stable recombinant GH4C1 cell line expressing the alpha7 nAChR. Hits identified were validated further by generation of concentration-response curves.

[3] = solubility in water of hydrochloride salt crystal forms; type: physicochemical

`COc1ccc(-c2cc(NC(=O)CCCCN3CCCN(C(C)=O)CC3)[nH]n2)cc1` (as salt: hydrochloric acid salt) [5-(4-Acetyl-[1,4]diazepan-1-yl)-pentanoic acid [5-(4-methoxy-phenyl)-2H-pyrazol-3-yl]-amide] showed a melting point of 185 °C.

`COc1ccc(-c2cc(NC(=O)CCCCN3CCCN(C(C)=O)CC3)[nH]n2)cc1` (as salt: hydrochloride) [Example 4, 5-(4-Acetyl-[1,4]diazepan-1-yl)-pentanoic acid [5-(4-methoxy-phenyl)-2H-pyrazol-3-yl]-amide] showed a melting point of 132 to 133 °C.

In the case of `COc1ccc(-c2cc(NC(=O)CCCCN3CCCN(C(C)=O)CC3)[nH]n2)cc1` [Crystal Form III, 5-(4-Acetyl-[1,4]diazepan-1-yl)-pentanoic acid [5-(4-methoxy-phenyl)-2H-pyrazol-3-yl]-amide], the “hygroscopicity (Crystal Form Table)” value [1] is reported as “Hygroscopic”.

With `COc1ccc(-c2cc(NC(=O)CCCCN3CCCN(C(C)=O)CC3)[nH]n2)cc1` [Crystal Form V, 5-(4-Acetyl-[1,4]diazepan-1-yl)-pentanoic acid [5-(4-methoxy-phenyl)-2H-pyrazol-3-yl]-amide] the water uptake ([1]; at RH 50%) was “(7% at RH” and the “hygroscopicity (Crystal Form Table)” value [1] was “Hygroscopic”.

In the case of `C[N+]1(C)CCN(c2ccccc2)CC1` [DMPP], the EC50 [2] is reported as 980 ± 470 nM.

With `COc1ccc(-c2cc(NC(=O)CCCCN3CCCN(C(C)=O)CC3)n[nH]2)cc1.Cl` [Form I, 5-(4-acetyl-1,4-diazepan-1-yl)-N-(5-(4-methoxyphenyl)-1H-pyrazol-3-yl)pentanamide hydrochloric salt Form I] the water absorbed eventually ([1]; DVS at 26° C.) was “up to 2%”, the “relative humidity at which the form picks up moisture” value ([1]; DVS at 26° C.) was “about 50%” and the moisture gain ([1]; at 70-100% RH, lost without significant hysteresis on decreasing RH) was “at least 12%”. For the same compound, the moisture gain ([1]; equilibrated at RH less than or equal to 70%) was “about 0.5%”, the “hygroscopicity” value [1] was “relatively non-hygroscopic” and the solubility in water [3] was “considerably soluble in water”.

For `COc1ccc(-c2cc(NC(=O)CCCCN3CCCN(C(C)=O)CC3)n[nH]2)cc1.Cl` [Form II, 5-(4-acetyl-1,4-diazepan-1-yl)-N-(5-(4-methoxyphenyl)-1H-pyrazol-3-yl)pentanamide hydrochloric salt Form II], the water absorbed eventually ([1]; DVS at 26° C.) was “up to 7%”, the “relative humidity at which the form picks up moisture” value ([1]; DVS at 26° C.) was “about 20%” and the “water held at low RH” value ([1]; RH 0%, DVS at 26° C.) was 2%. For the same compound, the “hygroscopicity” value [1] was “non-hygroscopic” and the solubility in water [3] was “considerably soluble in water”.

With `COc1ccc(-c2cc(NC(=O)CCCCN3CCCN(C(C)=O)CC3)n[nH]2)cc1.Cl` [mono-HCl salt, 5-(4-Acetyl-[1,4]diazepan-1-yl)-pentanoic acid [5-(4-methoxy-phenyl)-1H-pyrazol-3-yl]-amide (mono hydrochloride salt)] the “form change after DVS test” value [1] was “NO form change”.
